Test results: ChEMBL document CHEMBL1201862, “PubChem BioAssay data set” (2004)
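Results reflect a 48-hour exposure of cells in 96-well plates to compound at five concentrations. The concentration for 50% growth inhibition is given as GI50.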 Activity calls are given as the source filed them. No stated cut-off is given here; in the data, active = GI50 up to about 1.1 µM and inactive = higher.

Tests used:
Assay in all cases: NCI anticancer screen, dose series, 48 h
NCI-H522 = tested on: NCI-H522
A549 = tested on: A549
HOP-62 = tested on: HOP-62
K562 = tested on: K562
HL-60 = tested on: HL-60
SK-MEL-28 = tested on: SK-MEL-28
SW-620 = tested on: SW-620
ACHN = tested on: ACHN
SK-MEL-2 = tested on: SK-MEL-2
CCRF-CEM = tested on: CCRF-CEM
OVCAR-5 = tested on: OVCAR-5
KM12 = tested on: KM12
SNB-19 = tested on: SNB-19
MDA-MB-435 = tested on: MDA-MB-435
SNB-75 = tested on: SNB-75
Hs-578T = tested on: Hs-578T
SK-OV-3 = tested on: SK-OV-3
NCI/ADR-RES = tested on: NCI/ADR-RES

Measured: GI50

N/N=C1\C(=O)N(C2CCCCCC2)C(=O)C1C(=O)NC1CCCCCC1 (centres undefined)
inactive: NCI-H522 23.2 µM | A549 49.1 µM | HOP-62 > 10 µM | K562 30.3 µM | HL-60 19.8 µM | SK-MEL-28 > 10 µM | SW-620 28.3 µM | ACHN 42.2 µM | SK-MEL-2 19.1 µM | CCRF-CEM 25.4 µM | OVCAR-5 39.3 µM | KM12 39.5 µM | SNB-19 35.6 µM

BrC(=C(c1ccc(OC2CCCCO2)cc1)c1ccc(OC2CCCCO2)cc1)c1ccccc1 (centres undefined)
inactive: A549 > 100 µM | HOP-62 > 100 µM | MDA-MB-435 > 100 µM | K562 > 100 µM | HL-60 > 100 µM | SK-MEL-28 > 100 µM | SNB-75 > 100 µM | SW-620 > 100 µM | Hs-578T > 100 µM | SK-OV-3 > 100 µM | CCRF-CEM > 100 µM | KM12 > 100 µM | SNB-19 > 100 µM | NCI/ADR-RES > 100 µM

CC(C)(C)OC(=O)[C@H]1CCC(=S)N1Cc1ccccc1
inactive: NCI-H522 > 100 µM | A549 > 100 µM | MDA-MB-435 > 100 µM | HL-60 > 100 µM | SK-MEL-28 > 100 µM | SNB-75 > 100 µM | SW-620 > 100 µM | ACHN > 100 µM | SK-MEL-2 > 100 µM | SK-OV-3 > 100 µM | CCRF-CEM > 100 µM | OVCAR-5 > 100 µM | KM12 > 100 µM | SNB-19 > 100 µM | NCI/ADR-RES > 100 µM

CCOC(=O)c1c(N2CCCC2)nsc1Nc1ccccc1
inactive: A549 > 100 µM | K562 > 100 µM | HL-60 > 100 µM | SK-MEL-28 > 100 µM | SNB-75 > 100 µM | SW-620 > 100 µM | ACHN > 100 µM | SK-MEL-2 > 100 µM | Hs-578T 60 µM | CCRF-CEM > 100 µM | OVCAR-5 44.6 µM | KM12 > 100 µM | SNB-19 > 100 µM | NCI/ADR-RES > 100 µM

C/N=N/N(C)C(=O)NC
inactive: NCI-H522 > 100 µM | A549 > 100 µM | HOP-62 > 100 µM | K562 > 100 µM | HL-60 > 100 µM | SK-MEL-28 > 100 µM | SNB-75 > 100 µM | SW-620 > 100 µM | ACHN > 100 µM | SK-MEL-2 > 100 µM | SK-OV-3 > 100 µM | CCRF-CEM > 100 µM | OVCAR-5 > 100 µM | KM12 > 100 µM | SNB-19 > 100 µM

CC1(C)C2CC(c3ccncc3)ON2C(C)(C)N1O (centres undefined)
inactive: A549 > 100 µM | HOP-62 > 100 µM | MDA-MB-435 > 100 µM | K562 > 100 µM | HL-60 > 100 µM | SK-MEL-28 > 100 µM | SNB-75 > 100 µM | SW-620 > 100 µM | ACHN > 100 µM | SK-MEL-2 > 100 µM | Hs-578T > 100 µM | SK-OV-3 > 100 µM | CCRF-CEM > 100 µM | OVCAR-5 > 100 µM | KM12 > 100 µM | SNB-19 > 100 µM | NCI/ADR-RES > 100 µM

N=C(N)N1CCC(N2CCOCC2)CC1
inactive: A549 > 100 µM | HOP-62 > 100 µM | MDA-MB-435 > 100 µM | K562 > 100 µM | HL-60 > 100 µM | SK-MEL-28 > 100 µM | SNB-75 > 100 µM | SW-620 > 100 µM | ACHN > 100 µM | Hs-578T > 100 µM | SK-OV-3 > 100 µM | CCRF-CEM > 100 µM | OVCAR-5 > 100 µM | KM12 > 100 µM | SNB-19 > 100 µM | NCI/ADR-RES > 100 µM
